Reference: article PMC5443783, “Prostaglandin E2 glyceryl ester is an endogenous agonist of the nucleotide receptor P2Y6” (Scientific Reports, 2017)
Where “and” joins values, the source holds several entries; their conditions need not be identical. Identical values can stand only once. Entries after “also recorded” stand apart in the source; their conditions may differ.

What was measured:
P2Y6 [1] = molecular target: T1, P2Y6 (Homo sapiens, UniProt Q15077); assay: Agonist-induced receptor internalization, cell surface ELISA; format: cell-based; parameters: expressed in transfected cells; host or cells: HEK293; conditions: HEK293 transiently transfected with hP2RY6, time-dependent, Fig. 5e
T1 sequence (Q15077 whole entry): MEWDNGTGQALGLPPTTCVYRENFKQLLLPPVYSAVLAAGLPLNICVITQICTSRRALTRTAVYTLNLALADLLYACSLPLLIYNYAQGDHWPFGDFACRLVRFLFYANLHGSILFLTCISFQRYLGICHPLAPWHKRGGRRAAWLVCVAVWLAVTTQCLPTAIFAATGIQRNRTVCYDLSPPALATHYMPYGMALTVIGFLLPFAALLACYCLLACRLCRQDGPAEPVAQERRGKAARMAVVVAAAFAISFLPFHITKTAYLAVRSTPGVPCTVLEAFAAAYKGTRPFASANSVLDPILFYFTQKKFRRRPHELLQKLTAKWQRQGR
Procedure: (§1) To estimate cell surface expression of heterologously expressed receptors carrying an N-terminal HA tag, an indirect cellular ELISA was used[57]. To determine the endogenous cell surface expression of P2Y6, the same ELISA procedure was performed with minor modifications. Briefly, after 4% paraformaldehyde fixation and blocking with 10% FBS, cells were incubated with the primary anti-P2Y6 antibody (sc-15215; Santa Cruz Biotechnology, USA) in 1:1,000 dilution for 1 h. After washing with PBS, cells were incubated with peroxidase-conjugated secondary antibody anti-goat IgG (sc-2020, Santa Cruz Biotechnology, USA) in 1:5,000 dilutions.

P2Y6 [2] = molecular target: T1, P2Y6; assay: IP1 accumulation assay in HEK293 cells transfected with wildtype P2RY6; format: cell-based; parameters: expressed in transfected cells; host or cells: HEK293
Procedure: (§2) To measure intracellular IP3 the HitHunter® Inositol (1,4,5) Triphosphate Assay (DiscoveRx, USA) was used according to manufacturer′s protocol. HEK293 cells stably transfected with hP2RY6 were seeded in a 384-well Black microtiter plate (15,000 cells/well) (Greiner Bio One, Germany) and incubated with indicated concentrations of UDP and PGE2-G for 20 seconds. Reaction was stopped by adding 5 µl 0.2 N perchloric acid and measurement of IP3 was performed with the Fusion AlphaScreen multilabel reader (PerkinElmer Life Sciences) according to manufacturer′s protocol. To measure IP1, HEK293 cells expressing wildtype and mutant P2Y6 were seeded into 384-well plates (5,000 cells/well) 24 h prior assay. After aspiration of the medium, cells were incubated with indicated concentrations of agonists/antagonist for 1 h. IP1 measurements using the IP-one HTFR® assay kit (Cisbio assays, USA) were performed according to manufacturer′s protocol. The assays were performed with a final concentration of 1% DMSO.

RAW264.7 cells = assay: Intracellular Ca2+ measurement in RAW264.7 cells; format: cell-based, mouse
Procedure: (§3) For fluorometric measurements of intracellular Ca^2+ levels with the FlexStationII instrument (Molecular Devices), RAW264.7 and H1819 cells were seeded into 96-well plates (3.0 × 10^4 cells/well) 24 h prior to assay. Ca^2+ measurements with transiently transfected HEK293 cells were performed 48 h after transfection. Cells were loaded with 200 µl Calcium 5 reagent (Explorer Kit, Molecular Devices, USA) for 60 min at 37 °C, and the assay was performed as described. Agonists and inhibitors were solved in DMSO (100x) and diluted […] in 96-well compound plates containing HBSS. 50 µl of compound solution were added to the assay plate resulting in final concentration of 1% DMSO. Fold-response was calculated by RFUmax − RFUmin (ligand)/RFUmax − RFUmin (vehicle). EC50 values were calculated by using GraphPad Prism6 software (GraphPad, USA).

P2Y6 [3] = molecular target: T1, P2Y6; assay: Functional readouts at P2Y6, summary statements; format: cell-based; conditions: for EC50: summary value
P2Y6 Y75A = molecular target: T2, P2Y6 Y75A (Homo sapiens, UniProt Q15077, Y75A); assay: IP1 accumulation assay, mutant P2Y6 Y75A; format: cell-based; conditions: for IP1 formation at mutant receptor: Fig. 6d
T2 construct: expressed in transfected cells; host or cells: HEK293
T2 sequence (Q15077 whole entry Y75A): as the sequence (Q15077 whole entry) above, with Y75A counted along it
Source text: (§4) cDNA from H1819 cells was used to amplify and clone the P2RY6 and CNR2 coding sequences. They were double-tagged with an N-terminal HA epitope and a C-terminal FLAG epitope and, for transient transfection, introduced into the mammalian expression vector pcDps[56]. All mutant constructs were generated by a PCR-based site-directed mutagenesis and fragment replacement strategy. For stable transfection, P2RY6 was sub-cloned into the pIRES-eGFP vector (CLONTECH Laboratories, USA). All constructs were verified by sequencing.
as §2

[4] = molecular target: T3, human TSH receptor (TSHR) (Homo sapiens, UniProt P16473); assay: Cell surface expression of TSH receptor, cell surface ELISA; format: cell-based; conditions: HEK293 transfected with HA-tagged human TSHR, Fig. 5e
T3 construct: HA tag (N); expressed in transfected cells; host or cells: HEK293
T3 sequence (P16473 21-764): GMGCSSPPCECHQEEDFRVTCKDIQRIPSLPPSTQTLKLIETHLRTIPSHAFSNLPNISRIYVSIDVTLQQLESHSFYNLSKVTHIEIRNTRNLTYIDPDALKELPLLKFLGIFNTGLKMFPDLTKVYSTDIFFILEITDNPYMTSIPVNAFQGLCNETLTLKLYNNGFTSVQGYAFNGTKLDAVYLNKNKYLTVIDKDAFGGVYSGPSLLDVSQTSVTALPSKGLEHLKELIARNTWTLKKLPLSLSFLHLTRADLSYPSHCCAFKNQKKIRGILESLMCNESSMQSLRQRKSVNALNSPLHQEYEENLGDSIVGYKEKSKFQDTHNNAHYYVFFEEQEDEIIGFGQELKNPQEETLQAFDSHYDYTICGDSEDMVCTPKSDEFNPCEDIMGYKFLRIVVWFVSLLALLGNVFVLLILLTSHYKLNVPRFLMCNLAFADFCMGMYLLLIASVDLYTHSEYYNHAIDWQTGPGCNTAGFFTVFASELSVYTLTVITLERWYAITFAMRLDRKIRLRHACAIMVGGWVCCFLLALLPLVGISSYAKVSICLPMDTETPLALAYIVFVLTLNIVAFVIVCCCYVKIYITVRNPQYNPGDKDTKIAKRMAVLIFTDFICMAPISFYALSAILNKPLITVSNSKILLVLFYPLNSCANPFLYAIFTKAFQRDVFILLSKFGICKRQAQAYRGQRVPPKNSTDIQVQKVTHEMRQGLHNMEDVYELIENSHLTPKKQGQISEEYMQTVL
Procedure: as §1

H1819 cells = assay: Intracellular Ca2+ measurement in H1819 cells; format: cell-based, human
Procedure: as §3

P2Y6 [5] = molecular target: T1, P2Y6; assay: Intracellular Ca2+ measurement in HEK293 cells transfected with P2RY6; format: cell-based; parameters: expressed in transfected cells; host or cells: HEK293; conditions: for effect on cytosolic Ca2+ levels: HEK293 transiently transfected with P2RY6, concentration-dependent
Procedure: RAW264.7 cells were grown in DMEM supplemented with 10% FBS, A7r5 (rat […]) cells in DMEM with 10% FBS, and A431 (human squamous carcinoma) cells in RPMI supplemented with 10% FBS. All cell lines were grown at 37 °C in a humidified 5% CO2 incubator. For functional assays, receptor constructs were heterologously expressed in human embryonic kidney (HEK293) cells upon transient or stable transfection. Cells were grown in DMEM/F12 supplemented with 10% FBS, 100 units/ml penicillin, and 100 µg/ml streptomycin. For the cAMP-inhibition assay, ERK1/2 phosphorylation assay, and Ca^2+ mobilization assay, cells were split into 96-well plates (2.0 × 10^4 cells/well) and transfected with 250 ng vector construct using MACSfectin™ (Miltenyi Biotec, Germany) according to manufacturer’s protocol. Empty vector (mock) served as the negative control. For siRNA experiments, cells were seeded in 6-well plates (4.0 × 10^5 and 6.0 × 10^5 cells/well for RAW264.7 and H1819, respectively). RAW264.7 and H1819 cells were transfected with 150 pMol of mP2RY6 siRNA and hP2RY6 siRNA (Santa Cruz Biotechnology, USA), respectively, using Viromer® Blue (Lipocalyx, Germany). As a negative control, control siRNA-A (Santa Cruz Biotechnology, USA) was used. FITC-labelled siRNA served as a transfection control.
To generate a cell line stably expressing P2Y6, HEK293 cells were seeded in 6-well plates (7.5 × 10^5 cells/well) and transfected with 3 µg vector using MACSfectin™ as transfection regent according to the manufacturer’s protocol. The pIRES-eGFP vector served as negative control. Stably transfected HEK293 cells were cultured in the presence of geneticin (500 µg/ml) for selection.
as §3

P2Y6 F252A = molecular target: T4, P2Y6 F252A (Homo sapiens, UniProt Q15077, F252A); assay: IP1 accumulation assay, mutant P2Y6 F252A; format: cell-based; conditions: for IP1 formation at mutant receptor: Fig. 6d
T4 construct: expressed in transfected cells; host or cells: HEK293
T4 sequence (Q15077 whole entry F252A): as the sequence (Q15077 whole entry) above, with F252A counted along it
Source text: as §4, §2

[6] = HEK293 transiently transfected with P2RY6, Fig. 2b, read-out: EC50, intracellular Ca2+
[7] = Fig. 1d, read-out: EC50, intracellular Ca2+ release

Row | EC50 (P2Y6 [2]; HEK293 stably transfected with P2RY6, Fig. 5) | EC50 (P2Y6 [2]; agonist alone, HEK293 transfected with P2RY6, Fig. 6a) | EC50 (RAW264.7 cells; [7]) | EC50 (P2Y6 Y75A; Fig. 6e) | EC50 (H1819 cells; [7]) | EC50 (P2Y6 [5]; HEK293 stably transfected with P2RY6, Fig. 5, read-out: EC50, Ca2+ mobilization assay) | EC50 (P2Y6 F252A; Fig. 6e) | Molecule | agonist-induced internalization of P2Y6 (cell surface expression) (P2Y6 [1]) | ratio of EC50 values UDP / PGE2-G (P2Y6 [2]; IP1 accumulation, Fig. 6a) | Maximum RFU for PGE2-G (RAW264.7 cells; control (1% DMSO) 1,560 ± 479) | Emax values (P2Y6 [3]; most functional assays, Figs 3a–c and 6a) | EC50 (P2Y6 [3]) | IP1 formation at mutant receptor (P2Y6 Y75A) | effect on cell surface expression of the TSH receptor [4] | Maximum RFU for PGE2-G (H1819 cells; control (1% DMSO) 5,247 ± 2,016) | ratio of EC50 values UDP / PGE2-G (P2Y6 [5]; Ca2+ measurements in transfected HEK cells, Fig. 2b) | EC50 (P2Y6 [5]; [6]) | effect on cytosolic Ca2+ levels (P2Y6 [5]) | IP1 formation at mutant receptor (P2Y6 F252A)
1 | – | – | – | – | – | – | – | Prostaglandin E2 glyceryl ester [PGE2-G] | cell surface expression levels of P2Y6 were reduced; also recorded: induced a time-dependent internalization | ~ 63,000 | 3,649 ± 678 RFU | slightly lower compared to UDP | ~0.001 nM | loss of PGE2-G-induced IP1 formation | no effect | 13,143 ± 2,157 RFU | ~ 65,000 | ~0.001 nM and 0.0012 nM | increased the cytosolic Ca^2+ levels | loss of PGE2-G-induced IP1 formation
2 | 77.3 ± 3.4 nM | 18.9 ± 2.3 nM | 38.4 ± 1.9 nM | 15.4 ± 0.9 nM | 25.9 ± 2.8 nM | 57.1 ± 2.5 nM | 12.7 ± 2.1 nM | O=c1ccn([C@@H]2O[C@H](COP(=O)(O)OP(=O)(O)O)[C@@H](O)[C@H]2O)c(=O)[nH]1 [UDP] | cell surface expression levels of P2Y6 were reduced; also recorded: induced a time-dependent internalization | – | – | – | ~50 nM | efficacy remained unchanged | no effect | – | – | 78.3 ± 6.7 nM | increased the cytosolic Ca^2+ levels | efficacy remained unchanged
